This passage reports Ki results from patent US20240190889A1, “NEW CYCLOPENTA-THIENO-DIAZEPINE DERIVATIVES AS GABA A GAMMA1 POSITIVE ALLOSTERIC MODULATORS” (Hoffmann-La Roche Inc., priority 2021, published 2024).

Test [1] has as its target human GABAA α5β2γ1 receptor (Homo sapiens (Human), UniProt P31644+Q8N1C3). Briefly: Radioligand binding assay, competition for [3H]RO7239181, γ1-containing GABAA subtypes. To be noted: membranes from HEK293F cells, mean of two determinations. As for the experimental part: Membrane Preparation and Binding Assay for γ1-containing GABAA Subtypes
The affinity of compounds at GABAA γ1 subunit-containing receptors was measured by competition for [^3H]RO7239181 (67.3 Ci/mmol: Roche) binding to membranes from HEK293F cells (ThermoFisher R79007) expressing human (transiently transfected) receptors of composition α5β2γ1, α2β2γ1, α1β2γ1. For better protein expression of the α2 subunit-containing receptors, the 28 amino acid long signal peptide (Metl to Ala28) of the human GABAA α2 subunit was substituted by the 31 amino acid long signal peptide (Met1 to Ser31) of human GABAA α5 subunit.
Harvested pellets from HEK293F cells expressing the different GABAA receptor subtypes were resuspended in Mannitol Buffer pH 7.2-7.4 (Mannitol 0.29 M, Tricthylamine 10 mM. Acetic acid 10 mM. EDTA 1 mM plus protease inhibitors (20 tablets Complete. Roche Diagnostics Cat. No. 05 056 489 001 per liter)), washed two times and then resuspended at 1:10 to 1:15 dilution in the same buffer. Cell disruption was performed by stirring the suspension in a Parr vessel #4637 at 435 psi for 15 minutes, and then the suspensions were centrifuged at 1000×g for 15 minutes at 4° C. (Beckman Avanti J-HC: rotor JS-4.2). The supernatant (S1) was transferred in a 21 Schott flask and the pellet (P1) was resuspended with Mannitol Buffer up to 175 ml. The resuspended pellet was transferred into a 250 ml Corning centrifugal beaker and centrifuged at 1500 ×g for 10 minutes at 4° C. (Beckman Avanti J-HC: rotor JS-4.2). The supernatant (S1) was then transferred in the 21 Schott flask and the pellet was discarded. The supernatants (S1) were centrifuged in 500ml Beckman polypropylene centrifugal beaker at 15 000×g for 30 minutes at 4° C. (Beckman Avanti J-20 XP; rotor JLA-10.500). The pellet (P2) was resuspended with Mannitol Buffer 1:1 and frozen at −80° C. The supernatant (S2) was centrifuged in 100 ml Beckman polypropylene centrifugal tubes at 48000×g for 50 minutes at 4 °C (Beckman Avanti J-20 XP: rotor JA-18). The supernatant (S3) was discarded and the pellet (P3) was resuspended with 1:1 Mannitol Buffer. The P2 and P3 protein concentration was determined with the BIORAD Standard assay method with bovine serum albumin as standard and measured on the NANO-Drop 1000. The membrane suspension was aliquots (500μl per tube) and stored at −80° C. until required.
Membrane homogenates were resuspended and polytronised (Polytron PT1200E Kinematica AG) in Potassium Phosphate 10 mM, KCl 100 mM binding buffer at pH 7.4 to a final assay concentration determined with a previous experiment.
Radioligand binding assays were carried out in a volume of 200 μL (96-well plates) which contained 100 μL of cell membranes. [^3H]RO7239181 at a concentration of 1.5 nM (α5β2γ1) or 20-30 nM (α1β2γ1, α2β2γ1) and the test compound in the range of [0.3-10000]33 10^−9 M. Nonspecific binding was defined by […] (α5β2γ1) and […] RO7239181 and typically represented less than 5% (α5β2γ1) and less than 20% (α1β2γ1, α2β2γ1) of the total binding. Assays were incubated to equilibrium for 1 hour at 4° C. and then, membranes were filtered onto unifilter (96-well white microplate with bonded GF/C filters preincubated 20-50 minutes in 0.3% Polyethylenimine) with a Filtermate 196 harvester (Packard BioScience) and washed 4 times with cold Potassium Phosphate 10 mM pH 7.4. KCl 100 mM binding buffer. After anhydrousing, filter-retained radioactivity was detected by liquid scintillation counting. Ki values were calculated using Excel-Fit (Microsoft) and are the means of two determinations.
Representative test results, obtained by the above described assay measuring binding affinity to HEK293 cells expressing human (h) receptors, are shown in the Table 1.

In test [2] the target is human GABAA α1β2γ1 receptor (Homo sapiens (Human), UniProt P14867+Q8N1C3). The description is as above.

Molecules are shown by their SMILES.

As for `Cc1nnc2n1-c1sc3c(c1C(c1c(F)cccc1Cl)=NC2)C[C@@H](C#N)C3` [Example 1, (13R)-9-(2-chloro-6-fluoro-phenyl)-3-methyl-16-thia-2,4,5,8-tetrazatetracyclo [8.6.0.02,6.011,15]hexadeca-1(10),3,5,8,11(15)-pentaene-13-carbonitrile], the Ki in test [1] came out at 8.8 nM; in test [2], 47.9 nM.

For the compound `Cc1nnc2n1-c1sc3c(c1C(c1c(F)cccc1F)=NC2)C[C@@H](C(F)F)C3` [Example 3, (13R)-13-(difluoromethyl)-9-(2,6-difluorophenyl)-3-methyl-16-thia-2,4,5,8-tetrazatetracyclo [8.6.0.02,6.011,15]hexadeca-1(10),3,5,8,11(15)-pentaene], the values for the Ki in test [1] and in test [2] were 1.8 nM and 16.8 nM, respectively.

What is called Ki is the equilibrium dissociation constant of an inhibitor or competing ligand from its target. Lower therefore signals tighter binding.
